Measured values: publication PMC9555642 (PLoS ONE, 2022)

Tests used:
HDAC3 = target: T1, HDAC3 (Homo sapiens, UniProt O15379); assay: HDAC enzymatic activity (Eurofins); format: biochemical; conditions: Class I; ACY-1083 mean of two separate measurements, Ricolinostat and Tubastatin A one measurement
T1 construct: purchased Eurofins Pharma Discovery Services 2083

HDAC11 = target: T2, HDAC11 (Homo sapiens, UniProt Q96DB2); assay: HDAC enzymatic activity (Eurofins); format: biochemical; conditions: Class IV; ACY-1083 mean of two separate measurements, Ricolinostat and Tubastatin A one measurement
T2 construct: purchased Eurofins Pharma Discovery Services 2663
T2 sequence (Q96DB2 1-347): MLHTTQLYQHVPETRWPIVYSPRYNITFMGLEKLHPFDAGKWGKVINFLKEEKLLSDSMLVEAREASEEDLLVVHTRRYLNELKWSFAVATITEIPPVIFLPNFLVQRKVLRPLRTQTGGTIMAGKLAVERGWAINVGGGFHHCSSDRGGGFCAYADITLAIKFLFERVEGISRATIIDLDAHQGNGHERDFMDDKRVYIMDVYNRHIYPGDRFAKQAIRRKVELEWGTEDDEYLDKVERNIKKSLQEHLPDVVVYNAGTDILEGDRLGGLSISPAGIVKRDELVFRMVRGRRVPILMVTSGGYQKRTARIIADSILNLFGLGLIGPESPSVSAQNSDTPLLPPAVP

Sigma-1 receptor = target: T3, Sigma-1 receptor (Homo sapiens, UniProt Q99720); assay: Secondary pharmacology panel (Eurofins); format: binding
T3 construct: purchased Eurofins Pharma Discovery Services
T3 sequence (Q99720 whole entry, species assumed): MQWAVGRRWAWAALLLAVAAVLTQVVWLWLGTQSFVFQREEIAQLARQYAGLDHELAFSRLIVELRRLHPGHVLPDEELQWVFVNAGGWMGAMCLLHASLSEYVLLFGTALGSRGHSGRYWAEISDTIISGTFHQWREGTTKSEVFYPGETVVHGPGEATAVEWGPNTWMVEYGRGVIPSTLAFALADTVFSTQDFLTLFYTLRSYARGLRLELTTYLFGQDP
Protocol: (§1) Second pharmacology screening was performed at Eurofins Pharma Discovery Services in a panel of 190 in vitro radioligand binding and enzyme assays covering a diverse set of enzymes, receptors, ion channels, and transporters.

[1] = Secondary pharmacology panel of >190 in vitro radioligand binding and enzyme assays; conditions: hits: HDAC5, HDAC7, COX2 and DAT
Protocol: as §1

COPD HBEC ALI cultures [2] = assay: TNF challenge model in ALI, TEER and FITC-dextran permeability; format: cell-based, human; conditions: 10 μM, four COPD donors
COPD HBEC ALI cultures [3] = assay: TGF-β1 challenge in ALI, FITC-dextran permeability; format: cell-based, human; conditions: 10 μM pre-treatment 3 days, TGF-β 0.4, 2 and 10 ng/ml for 48 hours, two COPD donors
Protocol: The paracellular permeability was determined by using fluorescein isothiocyanate labeled 4kD-dextran (Sigma-Aldrich, St. Louis, USA). 18 hours after addition of 0.2 mg FITC-dextran in 200 μL medium to the apical side of the ALI cultures, the fluorescence in the basolateral medium was measured using PHERAstar FSX (excitation 485 nm and emission 520 nm) (BMG LABTECH, Ortenberg, Germany). The time point was chosen for optimal window in the assays as well as practical reasons and has been kept consistent in between different stimulations throughout this work. Data was plotted as fold-change of 0.1% DMSO control.
Permeability was measured after 48 hours.

COPD HBEC ALI cultures [4] = assay: Western blot of membrane protein from ALI cell cultures; format: cell-based, human; conditions: 10 μM, TNF-challenged, four COPD donors, trend observed
Protocol: For extraction of membrane and cytosol proteins the cells were lysed according to the Mem-PER Plus Membrane Protein Kit protocol (#89842, ThermoFisher Scientific). The supernatants were kept frozen in −80°C until total protein quantification. Quantification of total protein in the lysates was done using Pierce BCA Protein Assay Kit (#23227, Thermo Scientific) following the manufacturer´s instructions. Lysates containing 8 μg total protein were mixed with NuPAGE LDS Sample buffer 4x (NP007, Invitrogen), NuPAGE Sample Reducing Agent 10x (NP004, Invitrogen) and deionized water and then heated for ten minutes at 70°C. The samples were loaded onto NuPAGE 4–12% Bis-Tris Gels (NP0335, Invitrogen) and run at 120V for 100 minutes in NuPAGE MOPS SDS Running buffer (NP0001, Invitrogen). The proteins were transferred to nitrocellulose membranes (LC2001, Invitrogen) at 35 mA overnight using NuPAGE Transfer buffer (NP0006, Invitrogen) supplemented with 20% methanol. The membranes were stained with Revert Total Protein Stain (926–11011, LI-COR Biosciences) for five minutes, washed and then imaged in the 700 nm channel using Odyssey CLX imaging system (LI-COR Biosciences). To correct for variation in loading the total signal intensity of all proteins in each lane were used for normalization. An inter-membrane control sample was loaded to all gels to assure there were no differences due to methodology between the blots. The stain was removed with Revert Destaining Solution (926–11013, LI-COR Biosciences) and the membranes were blocked in Intercept (TBS) Blocking Buffer (927–60001, LI-COR Biosciences) for one hour on a shaker. […] After a final wash, three times for ten minutes in TBS-T, the fluorescent signals were detected using the Odyssey CLX imaging system and the signals were analysed using Image Studio software (v4.0, LI-COR Biosciences).

[5] = system: healthy HBEC at ALI cultures; assay: TEER in healthy HBEC ALI cultures, TNF challenge; format: cell-based, human; conditions: TNF-challenged healthy HBEC, p = 0.0187
[6] = system: healthy HBEC at ALI cultures; assay: Cell velocity (Particle Image Velocimetry); format: cell-based, human; conditions: TNF-challenged healthy HBEC, brought down to unchallenged levels, 0.0411
Text: For cilia beating frequency (CBF) and cell velocity measurements, donor cells of primary healthy HBECs were amplified on rat tail collagen I coated flasks and seeded on 12-mm-diameter Transwell inserts.
Cell migration was quantified by performing Particle Image Velocimetry (PIVlab) on Matlab using multi-pass cross-correlation analysis with decreasing interrogation window size on image pairs to obtain the spatial velocity field as described previously.

[7] = system: deacetylation of α-tubulin; design: method as in PMID 28267067; conditions: read-out: cell potency (IC50), inhibition of deacetylation of α-tubulin; cited from earlier work

T1 sequence (O15379 whole entry): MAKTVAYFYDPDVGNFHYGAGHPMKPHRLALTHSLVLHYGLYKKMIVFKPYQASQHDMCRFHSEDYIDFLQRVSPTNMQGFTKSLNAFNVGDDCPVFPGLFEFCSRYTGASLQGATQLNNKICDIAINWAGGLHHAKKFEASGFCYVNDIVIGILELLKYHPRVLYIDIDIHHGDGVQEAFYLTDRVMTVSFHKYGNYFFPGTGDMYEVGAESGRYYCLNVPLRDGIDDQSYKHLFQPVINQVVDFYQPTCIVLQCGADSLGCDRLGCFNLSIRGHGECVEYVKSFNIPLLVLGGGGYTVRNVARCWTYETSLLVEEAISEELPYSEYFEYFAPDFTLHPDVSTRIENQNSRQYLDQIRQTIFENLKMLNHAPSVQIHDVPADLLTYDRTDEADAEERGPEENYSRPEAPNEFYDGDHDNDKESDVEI
T1 sequence (Q9Y618 395-489 partner limits assumed): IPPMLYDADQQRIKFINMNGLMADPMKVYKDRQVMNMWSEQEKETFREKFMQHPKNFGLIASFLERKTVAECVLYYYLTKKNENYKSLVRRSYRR

IC50 (HDAC3): > 87.5 µM
IC50 (HDAC11): 18.2 µM
IC50 (Sigma-1 receptor): 17 µM
paracellular permeability after TGF-β challenge (COPD HBEC ALI cultures [3]): decreased it at all concentrations
Substance: ACY-1083
hits below 10 μM in HDAC isoform panel and secondary pharmacology safety panels [1]: 4
TEER vs DMSO control (COPD HBEC ALI cultures [2]; TNF 0, 5, 20 and 50 ng/mL, after seven days): higher TEER at all concentrations of TNF
paracellular permeability vs DMSO control (COPD HBEC ALI cultures [2]; TNF 5, 20 and 50 ng/mL): lower permeability at 5, 20 and 50 ng/mL TNF
E-cadherin level in membrane fraction (COPD HBEC ALI cultures [4]): not significantly higher
Occludin level in membrane fraction (COPD HBEC ALI cultures [4]): not significantly higher
β-catenin level in membrane fraction (COPD HBEC ALI cultures [4]): not significantly higher
TEER [5]: reversed this decrease
cellular velocity [6]: counteract this increase
IC50 [7]: 0.03 to 0.1 µM
